Key:
Assay in all cases: combination Emax (second highest fraction inhibited in the dose matrix, 72 h); higher = more inhibition; extreme values may be limits of the assay
[1] = tested on: 8305C (Thyroid Gland Carcinoma)
Procedure, shortened: (§1)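 Cell lines grown in DMEM/F12 or RPMI with 10% FBS were plated in 1536-well plates and held 24 hours at 37°C, 5% CO2 before 72 hours of exposure to two-drug dose matrices, with DMSO typically at 0.2%. CellTiter-Glo 2.0 luminescence gave viability, which was converted to inhibition. Vehicle wells were set to 0 and blank wells to 1. Combination Emax is the second-highest inhibition in the matrix, and Bliss excess is the observed combination effect minus the expected EA + EB − EA·EB, where EA and EB are the single-agent effects.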

[2] = tested on: CTB-1 (B-Cell Non-Hodgkin's Lymphoma)
Procedure, shortened: as §1

[3] = tested on: HDLM-2 (Hodgkin's Lymphoma)
Procedure, shortened: as §1

[4] = tested on: HO-1-u-1 (Oral Cavity Carcinoma)
Procedure, shortened: as §1

[5] = tested on: Hs-633T (Other Solid Carcinomas)
Procedure, shortened: as §1

[6] = tested on: K5 (Thyroid Gland Carcinoma)
Procedure, shortened: as §1

[7] = tested on: KARPAS-231 (B-Cell Non-Hodgkin's Lymphoma)
Procedure, shortened: as §1

[8] = tested on: LB771-HNC (Head and Neck Carcinoma)
Procedure, shortened: as §1

[9] = tested on: LU-139 (Small Cell Lung Carcinoma)
Procedure, shortened: as §1

[10] = tested on: LoVo (Colorectal Carcinoma)
Procedure, shortened: as §1

[11] = tested on: MHH-PREB-1 (B-Cell Non-Hodgkin's Lymphoma)
Procedure, shortened: as §1

Mewo (Melanoma) = tested on: Mewo (Melanoma)
Procedure, shortened: as §1

NCI-H2795 (Mesothelioma) = tested on: NCI-H2795 (Mesothelioma)
Procedure, shortened: as §1

[12] = tested on: NCI-H69 (Small Cell Lung Carcinoma)
Procedure, shortened: as §1

[13] = tested on: NCI-H747 (Colorectal Carcinoma)
Procedure, shortened: as §1

[14] = tested on: OVCAR-8 (Ovarian Carcinoma)
Procedure, shortened: as §1

[15] = tested on: RPMI-6666 (Non-Cancerous)
Procedure, shortened: as §1

[16] = tested on: RT-112 (Bladder Carcinoma)
Procedure, shortened: as §1

[17] = tested on: SU-DHL-6 (B-Cell Non-Hodgkin's Lymphoma)
Procedure, shortened: as §1

[18] = tested on: SW1271 (Small Cell Lung Carcinoma)
Procedure, shortened: as §1

SMILES | combination Emax [1] | combination Emax [2] | combination Emax [3] | combination Emax [4] | combination Emax [5] | combination Emax [6] | combination Emax [7] | combination Emax [8] | combination Emax [9] | combination Emax [10] | combination Emax [11] | combination Emax (Mewo (Melanoma)) | combination Emax (NCI-H2795 (Mesothelioma)) | combination Emax [12] | combination Emax [13] | combination Emax [14] | combination Emax [15] | combination Emax [16] | combination Emax [17] | combination Emax [18]
COc1cccc(OCCCN)c1-c1cc(Nc2cnc(C#N)cn2)n[nH]1 [Prexasertib] + O=C(c1cc(Cc2n[nH]c(=O)c3ccccc23)ccc1F)N1CCN(C(=O)C2CC2)CC1 [Olaparib] (first compound max 1 µM, 7x7, partner max 10 µM) | 0.785 | 0.876 | 0.626 | 0.936 | 0.854 | 0.634 | 0.974 | 0.568 | 0.442 | 0.798 | 0.866 | 0.505 | 0.674 | 0.696 | 0.422 | 0.966 | 0.959 | 0.797 | 0.653 | 0.686
COc1cc2c(cc1OCCCCCOc1cc3c(cc1OC)C(=O)N1C=C(C)C[C@H]1C=N3)N=C[C@@H]1CC(C)=CN1C2=O [SG3199] + O=C(c1cc(Cc2n[nH]c(=O)c3ccccc23)ccc1F)N1CCN(C(=O)C2CC2)CC1 [Olaparib] (first compound max 0.001 µM, 7x7, partner max 10 µM) | 0.141 | 0.28 | 0.167 | 0.15 | 0.142 | 0.196 | 0.262 | 0.181 | 0.174 | 0.14 | 0.13 | 0.106 | 0.269 | 0.242 | 0.0668 | 0.268 | 0.501 | 0.1 | 0.171 | 0.18
CCc1c2c(nc3ccc(O)cc13)-c1cc3c(c(=O)n1C2)COC(=O)[C@]3(O)CC [SN-38] + CN(C)CCCOc1ccc(-c2ccc3ncc4c(c3c2)n(C2CCOCC2)c(=O)n4C)cn1 [AZD0156] (first compound max 0.3 µM, 7x7, partner max 1 µM) | 0.572 | 0.859 | 0.341 | 0.676 | 0.838 | 0.512 | 1 | 0.0261 | 0.627 | 0.727 | 0.701 | 0.248 | 0.808 | 0.738 | 0.408 | 0.849 | 0.947 | 0.797 | 0.987 | 0.707

— the supplement of paper PMC11061612
